Experimental data from ChEMBL document CHEMBL2346626, “PF-04859989 as a template for structure-based drug design: identification of new pyrazole series of irreversible KAT II inhibitors with improved lipophilic efficiency” (Bioorg Med Chem Lett, 2013).

Experiments:
[1] = target: T1, Kynurenine/alpha-aminoadipate aminotransferase, mitochondrial (Homo sapiens, UniProt Q8N5Z0); assay: Ratio of Kinact to Ki for inhibition of human KAT2
Target sequence in this assay (Q8N5Z0 30-425 limits assumed): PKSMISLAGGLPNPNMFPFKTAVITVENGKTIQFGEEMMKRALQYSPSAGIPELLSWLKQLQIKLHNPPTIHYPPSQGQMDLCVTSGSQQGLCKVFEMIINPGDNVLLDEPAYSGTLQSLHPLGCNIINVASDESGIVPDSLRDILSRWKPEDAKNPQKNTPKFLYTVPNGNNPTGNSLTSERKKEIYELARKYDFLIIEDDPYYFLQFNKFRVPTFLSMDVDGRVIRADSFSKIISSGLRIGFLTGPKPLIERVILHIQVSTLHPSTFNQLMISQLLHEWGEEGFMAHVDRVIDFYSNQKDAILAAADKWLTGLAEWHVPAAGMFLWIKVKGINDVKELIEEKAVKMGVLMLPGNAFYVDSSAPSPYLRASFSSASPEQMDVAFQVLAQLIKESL

[2] = target: T1, Kynurenine/alpha-aminoadipate aminotransferase, mitochondrial; assay: Inhibition of human KAT2 using L-kynurenine as substrate measured every 5 mins for 16 hours by UV-visible spectra analysis
Target sequence in this assay (Q8N5Z0 30-425 limits assumed): as above

[3] = target: T1, Kynurenine/alpha-aminoadipate aminotransferase, mitochondrial; assay: Inhibition of human KAT2 using L-kynurenine as substrate after 15 to 20 hrs by UV-visible spectra analysis
Target sequence in this assay (Q8N5Z0 whole entry): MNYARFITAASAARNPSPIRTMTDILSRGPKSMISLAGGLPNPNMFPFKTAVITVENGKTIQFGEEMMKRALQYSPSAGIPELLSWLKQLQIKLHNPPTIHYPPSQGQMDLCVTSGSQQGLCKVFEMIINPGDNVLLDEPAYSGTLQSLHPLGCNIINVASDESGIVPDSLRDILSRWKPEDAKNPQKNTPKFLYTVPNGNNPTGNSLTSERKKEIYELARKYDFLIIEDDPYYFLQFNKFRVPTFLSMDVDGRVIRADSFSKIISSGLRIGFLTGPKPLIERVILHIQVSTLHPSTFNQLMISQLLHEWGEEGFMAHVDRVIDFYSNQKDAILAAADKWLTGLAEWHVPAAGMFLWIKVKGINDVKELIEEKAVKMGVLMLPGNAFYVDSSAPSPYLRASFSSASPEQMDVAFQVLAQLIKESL

[4] = Intrinsic apparent clearance in human liver microsomes; format: ADME, Microsome; settings: read-out: CLH(app)

Structure (SMILES) | Ratio [1] [M⁻¹ s⁻¹] | Kinact [2] [min⁻¹] | Ki [3] [µM] | IC50 [3] [µM] | microsomal CLint [4] [µL/min/mg]
COc1cccc(Cc2nn(C)c3c2C[C@H](N)C(=O)N3O)c1 | 8710 | 0.0116 | 0.022 | – | –
N[C@H]1Cc2nn(-c3ccccc3)cc2N(O)C1=O | 8580 | 0.0144 | 0.041 | 0.085 | –
N[C@H]1Cc2c(c(C(F)(F)F)nn2Cc2ccccc2)N(O)C1=O | 7920 | 0.0227 | 0.048 | 0.074 | –
Cn1nc(Cc2ccccc2)c2c1N(O)C(=O)[C@@H](N)C2 | 16000 | 0.0349 | 0.032 | – | –
N[C@H]1Cc2cn(Cc3ccccc3)nc2N(O)C1=O | 10500 | 0.0147 | 0.023 | 0.047 | –

Compounds with a lower Ki [3], results first:

Ratio [1] [M⁻¹ s⁻¹] | Kinact [2] [min⁻¹] | Ki [3] [µM] | IC50 [3] [µM] | microsomal CLint [4] [µL/min/mg] | Structure (SMILES)
– | – | 0.014 | – | – | N[C@H]1Cc2ccccc2N(O)C1=O
129000 | 0.0146 | 0.0016 | 0.037 | 26 | COc1cc2c(cc1Cc1ccccc1)C[C@H](N)C(=O)N2O
16200 | 0.0116 | 0.012 | – | – | N[C@H]1Cc2c(cnn2Cc2ccccc2)N(O)C1=O
112000 | 0.0125 | 0.0019 | 0.025 | < 8 | N[C@H]1Cc2cn(-c3ccccc3)nc2N(O)C1=O
